PMC6407204, “Oral administration of the cannabigerol derivative VCE-003.2 promotes subventricular zone neurogenesis and protects against mutant huntingtin-induced neurodegeneration” (Translational Neurodegeneration, 2019)

Key:
[1] = Microsomal metabolic stability; settings: human, microsomes, pH 7.4
Protocol: The final incubation volume was 25 μL. […] The reactions were stopped by the addition of 50 μL methanol containing internal standard at the appropriate time points. The incubation plates were centrifuged at 2500 rpm for 20 min at 4 °C to precipitate the protein. Following protein precipitation, the sample supernatants were analyzed using LC-MS/MS. From a plot of ln peak area ratio (compound peak area/internal standard peak area) against time, the gradient of the line was determined. Subsequently, half-life and intrinsic clearance was calculated using the equations below: Elimination rate constant (k) = (− gradient).

[2] = tested on: S. typhimurium TA98; assay: AMES reverse mutation assay, TA98; type: cell-based; settings: TA98, S9 yes
Protocol: (§1) Supplementary file 40035_2019_148_MOESM4_ESM.pdf: Additional file 4: AMES Data Summary. AMES Experimental Procedure. Approximately ten million bacteria are exposed in triplicate to VCE-003-.2 (7.8, 15.6, 31.3, 62.5, 125 and 250 μg/ml), a negative control (vehicle) and a positive control for 90 min in medium containing a low concentration of histidine (sufficient for about 2 doublings). The cultures were then diluted into indicator medium lacking histidine and dispensed into 48 wells of a 384 well plate (micro-plate format, MPF). The plate was incubated for 48 h at 37 °C, and the number of wells showing growth were counted and compared to the vehicle control. An increase in the number of colonies of at least two-fold over baseline (mean + SD of the vehicle control) and a dose response indicates a positive response. […] Where indicated, S9 fraction from the livers of Aroclor 1254-treated rats was included in the incubation at a final concentration of 4.5%. An NADPH-regenerating system is also included to ensure a steady supply of reducing equivalents. The strains used in this study were S. typhimurium TA98 (hisD3052, rfa, uvrB/pKM10 for detection of frame-shift mutations) and S. typhimurium TA100 ([…], rfa, uvrB/pKM101 for detection of base-pair substitutions). VCE-003.2 was assessed for its mutagenic potential in the AMES reverse mutation assay. This test was performed in the absence and presence of S9 metabolic activation. […] The positive controls all behaved as expected. (PDF 568 kb)

[3] = tested on: S. typhimurium TA100; assay: AMES reverse mutation assay, TA100; type: cell-based; settings: TA100, S9 yes
Protocol: as §1

[4] = tested on: murine models of HD; design: method as in PMID 25252936; settings: 3-nitropropionic acid injection model and R6/2 model, via PPARγ; cited from earlier work

SMILES	half-life [1]	microsomal CLint [1]	AMES Result [2]	AMES Result [3]	motor symptoms, neuroinflammation and neurodegeneration in HD models [4]
COc1ccc2c(c1)[C@]13CCCC[C@@H]1[C@H](C2)N(C)CC3 [Dextrom Etorphan, dextromethorphan]	58.1 min	23.9 µL/min/mg			
Nc1cccc2cc3ccccc3cc12 [aminoanthracene, reference compound]			Positive	Positive	
CCCCCc1cc(O)c(C/C=C(\C)CCC=C(C)C)c(O)c1 [CBG, Cannabigerol]	13.4 min	103 µL/min/mg			alleviates motor symptoms, neuroinflammation and neurodegeneration
